Test results: patent publication US10780090B2, “Heteroaryl compounds useful as inhibitors of SUMO activating enzyme” (Millennium Pharmaceuticals, Inc., priority 2014, dated 2020)
pIC50: −log10 of the molar value.

Molecular target: recombinant human SAE enzyme (Homo sapiens (Human), UniProt Q9UBT2)
Assay: SAE HTRF enzyme assay
Format: biochemical
Details: for Percent Inhibition: Concentration 0.111 μM; for pIC50: class symbols A/B/C
In short: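 Sumoylation of Ubc9-GST by SAE was followed at low ATP (0.5 μM), pH 7.5, 24° C. for 105 min. Product was detected by HTRF with antibody pairs against Flag and GST tags.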

Chain of recombinant human SAE enzyme (Q9UBT2 whole entry): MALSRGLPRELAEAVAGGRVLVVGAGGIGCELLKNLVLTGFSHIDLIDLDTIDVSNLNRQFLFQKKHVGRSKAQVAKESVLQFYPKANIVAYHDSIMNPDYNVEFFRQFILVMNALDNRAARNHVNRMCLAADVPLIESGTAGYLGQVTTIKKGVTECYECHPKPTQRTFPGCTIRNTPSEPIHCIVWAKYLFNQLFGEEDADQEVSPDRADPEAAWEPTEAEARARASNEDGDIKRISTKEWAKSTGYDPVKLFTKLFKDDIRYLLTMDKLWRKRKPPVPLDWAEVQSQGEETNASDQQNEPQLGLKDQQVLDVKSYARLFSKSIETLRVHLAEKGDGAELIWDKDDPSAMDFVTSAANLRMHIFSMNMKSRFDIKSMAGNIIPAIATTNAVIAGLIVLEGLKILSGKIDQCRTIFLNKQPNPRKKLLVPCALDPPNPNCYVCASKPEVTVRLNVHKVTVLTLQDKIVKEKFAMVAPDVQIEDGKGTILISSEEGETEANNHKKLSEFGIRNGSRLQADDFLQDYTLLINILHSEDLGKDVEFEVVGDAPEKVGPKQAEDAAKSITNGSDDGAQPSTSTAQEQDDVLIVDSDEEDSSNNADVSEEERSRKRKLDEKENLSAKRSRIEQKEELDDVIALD
Chain of recombinant human SAE enzyme (Q9UBE0 whole entry partner): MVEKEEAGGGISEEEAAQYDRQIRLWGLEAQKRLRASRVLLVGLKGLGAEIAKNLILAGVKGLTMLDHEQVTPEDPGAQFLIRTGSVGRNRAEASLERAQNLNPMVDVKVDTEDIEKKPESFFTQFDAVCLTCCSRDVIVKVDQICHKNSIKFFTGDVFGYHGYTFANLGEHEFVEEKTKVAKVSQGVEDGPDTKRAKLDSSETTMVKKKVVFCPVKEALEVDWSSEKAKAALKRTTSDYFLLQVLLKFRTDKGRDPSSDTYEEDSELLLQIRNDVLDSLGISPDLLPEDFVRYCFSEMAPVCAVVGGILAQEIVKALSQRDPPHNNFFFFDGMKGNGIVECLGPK

Cc1sc(C(=O)c2cncnc2N[C@@H]2C[C@H](COS(N)(=O)=O)[C@@H](O)[C@H]2O)cc1[C@@H]1OCCc2ccccc21 (single isomer, unassigned) [I-250b, [(1R,2R,3S,4R)-4-{[5-({4-[(1R)-3,4-dihydro-1H-isochromen-1-yl]-5-methyl-2-thienyl}carbonyl)pyrimidin-4-yl]amino}-2,3-dihydroxycyclopentyl]methyl sulfamate or [(1R,2R,3S,4R)-4-{[5-({4-[(1S)-3,4-dihydro-1H-isochromen-1-yl]-5-methyl-2-thienyl}carbonyl)pyrimidin-4-yl]amino}-2,3-dihydroxycyclopentyl]methyl sulfamate]
Percent Inhibition: 98 | pIC50: > 8.00

NS(=O)(=O)OC[C@H]1C[C@@H](Nc2ncncc2C(=O)c2cc([C@@H]3NCCc4ccc(Br)cc43)c(Cl)s2)C[C@@H]1O (single isomer, unassigned) [I-251a, [(1R,2S,4R)-4-{[5-({4-[(1R)-7-bromo-1,2,3,4-tetrahydroisoquinolin-1-yl]-5-chloro-2-thienyl}carbonyl)pyrimidin-4-yl]amino}-2-hydroxycyclopentyl]methyl sulfamate or [(1R,2S,4R)-4-{([5-({4-[(1S)-7-bromo-1,2,3,4-tetrahydroisoquinolin-1-yl]-5-chloro-2-thienyl}carbonyl)pyrimidin-4-yl]amino}-2-hydroxycyclopentyl]methyl sulfamate]
Percent Inhibition: 100 | pIC50: > 8.00

NS(=O)(=O)OC[C@H]1C[C@@H](Nc2ncncc2C(=O)c2cc([C@@H]3NCCc4ccc(Br)cc43)c(Cl)s2)C[C@@H]1O (single isomer, unassigned) [I-251b, [(1R,2S,4R)-4-{[5-({4-[(1R)-7-bromo-1,2,3,4-tetrahydroisoquinolin-1-yl]-5-chloro-2-thienyl}carbonyl)pyrimidin-4-yl]amino}-2-hydroxycyclopentyl]methyl sulfamate or [(1R,2S,4R)-4-{[5-({4-[(1S)-7-bromo-1,2,3,4-tetrahydroisoquinolin-1-yl]-5-chloro-2-thienyl}carbonyl)pyrimidin-4-yl]amino}-2-hydroxycyclopentyl]methyl sulfamate]
Percent Inhibition: 97 | pIC50: > 8.00

C#Cc1ccc2c(c1)[C@H](c1cc(C(=O)c3cncnc3N[C@@H]3C[C@H](COS(N)(=O)=O)[C@@H](O)C3)sc1C)OCC2 (single isomer, unassigned) [I-252a, [(1R,2S,4R)-4-{[5-({4-[(1R)-7-ethynyl-3,4-dihydro-1H-isochromen-1-yl]-5-methyl-2-thienyl}carbonyl)pyrimidin-4-yl]amino}-2-hydroxycyclopentyl]methyl sulfamate or [(1R,2S,4R)-4-{[5-({4-[(1S)-7-ethynyl-3,4-dihydro-1H-isochromen-1-yl]-5-methyl-2-thienyl}carbonyl)pyrimidin-4-yl]amino}-2-hydroxycyclopentyl]methyl sulfamate]
Percent Inhibition: 71 | pIC50: 7.00 to 8.00

C#Cc1ccc2c(c1)[C@H](c1cc(C(=O)c3cncnc3N[C@@H]3C[C@H](COS(N)(=O)=O)[C@@H](O)C3)sc1C)OCC2 (single isomer, unassigned) [I-252b, [(1R,2S,4R)-4-{[5-({4-[(1R)-7-ethynyl-3,4-dihydro-1H-isochromen-1-yl]-5-methyl-2-thienyl}carbonyl)pyrimidin-4-yl]amino}-2-hydroxycyclopentyl]methyl sulfamate or [(1R,2S,4R)-4-{([5-({4-[(1S)-7-ethynyl-3,4-dihydro-1H-isochromen-1-yl]-5-methyl-2-thienyl}carbonyl)pyrimidin-4-yl]amino}-2-hydroxycyclopentyl]methyl sulfamate]
Percent Inhibition: 98 | pIC50: > 8.00

NS(=O)(=O)OC[C@H]1C[C@@H](Nc2ncncc2C(=O)c2cc([C@@H]3NCCc4ccc(Cl)nc43)c(Cl)s2)C[C@@H]1O (single isomer, unassigned) [I-253a, [(1R,2S,4R)-4-{[5-({5-chloro-4-[(8S)-2-chloro-5,6,7,8-tetrahydro-1,7-naphthyridin-8-yl-2-thienyl}carbonyl)pyrimidin-4-yl]amino}-2-hydroxycyclopentyl]methyl sulfamate or ((1R,2S,4R)-4-{([5-({5-chloro-4-[(8R)-2-chloro-5,6,7,8-tetrahydro-1,7-naphthyridin-8-yl]-2-thienyl}carbonyl)pyrimidin-4-yl]amino}-2-hydroxycyclopentyl]methyl sulfamate]
Percent Inhibition: 99 | pIC50: > 8.00

NS(=O)(=O)OC[C@H]1C[C@@H](Nc2ncncc2C(=O)c2cc([C@@H]3NCCc4ccc(Cl)nc43)c(Cl)s2)C[C@@H]1O (single isomer, unassigned) [I-253b, [(1R,2S,4R)-4-{[5-({5-chloro-4-[(8S)-2-chloro-5,6,7,8-tetrahydro-1,7-naphthyridin-8-yl]-2-thienyl}carbonyl)pyrimidin-4-yl]amino}-2-hydroxycyclopentyl]methyl sulfamate or [(1R,2S,4R)-4-{[5-({5-chloro-4-[(8R)-2-chloro-5,6,7,8-tetrahydro-1,7-naphthyridin-8-yl]-2-thienyl}carbonyl)pyrimidin-4-yl]amino}-2-hydroxycyclopentyl]methyl sulfamate]
Percent Inhibition: 83 | pIC50: 7.00 to 8.00

NS(=O)(=O)OC[C@H]1C[C@@H](Nc2ncncc2C(=O)c2cc([C@@H]3OCCc4ccccc43)cs2)C[C@@H]1O (single isomer, unassigned) [I-254a, [(1R,2S,4R)-4-{[5-({4-[(1R)-3,4-dihydro-1H-isochromen-1-yl]-2-thienyl}carbonyl)pyrimidin-4-yl]amino}-2-hydroxycyclopentyl]methyl sulfamate or [(1R,2S,4R)-4-{[5-({4-[(1S)-3,4-dihydro-1H-isochromen-1-yl]-2-thienyl}carbonyl)pyrimidin-4-yl]amino}-2-hydroxycyclopentyl]methyl sulfamate]
Percent Inhibition: 81 | pIC50: 7.00 to 8.00

NS(=O)(=O)OC[C@H]1C[C@@H](Nc2ncncc2C(=O)c2cc([C@@H]3OCCc4ccccc43)cs2)C[C@@H]1O (single isomer, unassigned) [I-254b, [(1R,2S,4R)-4-{[5-({4-[(1R)-3,4-dihydro-1H-isochromen-1-yl]-2-thienyl}carbonyl)pyrimidin-4-yl]amino}-2-hydroxycyclopentyl]methyl sulfamate or [(1R,2S,4R)-4-{[5-({4-[(S)-3,4-dihydro-1H-isochromen-1-yl]-2-thienyl}carbonyl)pyrimidin-4-yl]amino}-2-hydroxycyclopentyl]methyl sulfamate]
Percent Inhibition: 99 | pIC50: > 8.00

NS(=O)(=O)OC[C@H]1C[C@@H](Nc2ncncc2C(=O)c2cc(C3NCCc4ccc(Cl)cc43)c(Cl)s2)C[C@@H]1O (single isomer, unassigned) [I-255a, [(1R,2S,4R)-4-{[5-({5-chloro-4-[(1R)-7-chloro-1,2,3,4-tetrahydroisoquinolin-1-yl]-2-thienyl}carbonyl)pyrimidin-4-yl]amino}-2-hydroxycyclopentyl]methyl sulfamate or [(1R,2S,4R)-4-{[5-({5-chloro-4-[(1S)-7-chloro-1,2,3,4-tetrahydroisoquinolin-1-yl]-2-thienyl}carbonyl)pyrimidin-4-yl]amino}-2-hydroxycyclopentyl]methyl sulfamate]
Percent Inhibition: 93 | pIC50: 7.00 to 8.00

NS(=O)(=O)OC[C@H]1C[C@@H](Nc2ncncc2C(=O)c2cc(C3NCCc4ccc(Cl)cc43)c(Cl)s2)C[C@@H]1O (single isomer, unassigned) [I-255b, [(1R,2S,4R)-4-{[5-({5-chloro-4-[(1R)-7-chloro-1,2,3,4-tetrahydroisoquinolin-1-yl]-2-thienyl}carbonyl)pyrimidin-4-yl]amino}-2-hydroxycyclopentyl]methyl sulfamate or [(1R,2S,4R)-4-{[5-({5-chloro-4-[(1S)-7-chloro-1,2,3,4-tetrahydroisoquinolin-1-yl-2-thienyl}carbonyl)pyrimidin-4-yl]amino}-2-hydroxycyclopentyl]methyl sulfamate]
Percent Inhibition: 100 | pIC50: > 8.00

Cc1sc(C(=O)c2cncnc2N[C@@H]2C[C@H](COS(N)(=O)=O)[C@@H](O)C2)cc1[C@@H]1OCCc2ccc(C(F)(F)F)cc21 (single isomer, unassigned) [I-258a, [(1R,2S,4R)-2-hydroxy-4-{[5-({5-methyl-4-[(1R)-7-(trifluoromethyl)-3,4-dihydro-1H-isochromen-1-yl]-2-thienyl}carbonyl)pyrimidin-4-yl]amino}cyclopentyl]methyl sulfamate or [(1R,2S,4R)-2-hydroxy-4-{[5-({5-methyl-4-[(1S)-7-(trifluoromethyl)-3,4-dihydro-1H-isochromen-1-yl]-2-thienyl}carbonyl)pyrimidin-4-yl]amino}cyclopentyl]methyl sulfamate]
Percent Inhibition: 98 | pIC50: > 8.00

Cc1sc(C(=O)c2cncnc2N[C@@H]2C[C@H](COS(N)(=O)=O)[C@@H](O)C2)cc1[C@@H]1OCCc2ccc(C(F)(F)F)cc21 (single isomer, unassigned) [I-258b, [(1R,2S,4R)-2-hydroxy-4-{[5-({5-methyl-4-[(1R)-7-(trifluoromethyl)-3,4-dihydro-1H-isochromen-1-yl]-2-thienyl}carbonyl)pyrimidin-4-yl]amino}cyclopentyl]methyl sulfamate or [(1R,2S,4R)-2-hydroxy-4-{[5-({5-methyl-4-[(1S)-7-(trifluoromethyl)-3,4-dihydro-1H-isochromen-1-yl]-2-thienyl}carbonyl)pyrimidin-4-yl]amino}cyclopentyl]methyl sulfamate]
Percent Inhibition: 72 | pIC50: 7.00 to 8.00
